# Columns and labels:
# [1] = tested on: human diffuse large B lymphoma (TMD-8); assay: In-vitro tumor cell proliferation inhibition (CCK-8), TMD-8; conditions: TMD8, 72 h, read-out: Tumor cell proliferation inhibitory activity (IC50, nM) TMD-8
# Description: (§11) The in-vitro antitumor activity assay was carried out on the synthesized compound by using different solid tumors and leukemia cell lines:
# (§12) Cell lines: human lung cancer cell (A549), human mantle cell lymphoma (MINO), diffuse giant B-cell lymphoma (OCI-LY10), and human diffuse large B lymphoma (TMD-8).
# (§13) Preparation method of the drug: the drug was dissolved in DMSO to make a 10 mM stock solution, and then the stock solution was diluted in a certain ratio to obtain 5 different concentrations (test concentration 100×). In-vitro culture of tumor cells:
# (§14) The tumor cells A549, MINO, OCI-LY10, and TMD-8 were seeded in a 96-well plate at 4000 cells/200 μL/well and then incubated overnight at 37° C. in a 5% CO2 cell culture incubator. 2 μL of the compound was added to each well to final concentrations of 50 μM, 10 μM, 2 μM, 0.4 μM, and 0.08 μM and then incubated for 72 hours at 37° C. in a 5% CO2 cell incubator, with DMSO (2%) as a control group. […] Wells loaded with the corresponding amount of cell culture fluid the and CCK-8 solution but no cells were considered as blank controls. The absorbance (OD value) was measured at 450 nm using a microplate reader, and the obtained data was used to calculate IC50.
# [2] = tested on: human mantle cell lymphoma (MINO); assay: In-vitro tumor cell proliferation inhibition (CCK-8), MINO; conditions: 72 h, read-out: Tumor cell proliferation inhibitory activity (IC50, μM) MINO
# FLT3 = FLT3 (Homo sapiens (Human), UniProt P36888); assay: Kinase selectivity experiment, FLT3; type: biochemical; conditions: read-out: Inhibitory activity against FLT3 (IC50)
# Description: (§1) A 1× kinase base buffer and a reaction stop buffer for respective kinases in the experiment were prepared as required.
# (§2) Preparation of Compounds to be Tested:
# (§3) 2) diluting each compound at a 5-fold concentration gradient in a 96-well plate to 6 to 7 concentrations and ensuring that the drug volume in each well was 10 μl; and at the same time adding 100 μl of DMSO to prepare a blank control group and also preparing a negative control group without the enzyme substrate; and
# (§4) 3) preparing another 96-well plate, adding 10 μl of each of the above compounds to 90 μl of the 1× kinase base buffer and mixing for 10 minutes to be uniform.
# (§5) Preparation of the Plate to be Tested:
# (§6) 1) 5 μl of the mixed solution prepared as above in the 96-well plate was taken and transferred to a 384-well plate, with two replicate wells for each compound.
# (§7) 1) Preparing a 2.5× kinase solution and adding a corresponding 1× kinase base buffer;
# (§8) 2) preparing a 2.5× polypeptide solution and adding FAM-labeled polypeptide and ATP in the 1× kinase base buffer; and
# (§9) 3) adding 10 μl of 2.5× kinase solution to a 384-well plate to be tested, placing in a room-temperature environment for 10 minutes, and then adding 10 μl of the 2.5× polypeptide solution, reacting at 28° C. for 1 hour, and then adding 25 μl of a reaction stop buffer.
# (§10) The Caliper program reads the plate and uses the data to obtain the IC50 values of the corresponding compounds against kinases.
# JAK3 = JAK3 (Homo sapiens (Human), UniProt P52333); assay: Kinase selectivity experiment, JAK3; type: biochemical; conditions: read-out: Inhibitory activity against JAK3 (IC50)
# Description: as §1, §2, §3, §4, §5, §6, §7, §8, §9, §10
# HCK = HCK (Homo sapiens (Human), UniProt P08631); assay: Kinase selectivity experiment, HCK; type: biochemical; conditions: read-out: Inhibitory activity against HCK (IC50)
# Description: as §1, §2, §3, §4, §5, §6, §7, §8, §9, §10
# [3] = Oral pharmacokinetic experiment in SD rats; type: in vivo; conditions: for oral bioavailability relative to ibrutinib: oral 10 mg/kg; for AUC0-C(ng/h/mL) / AUC0-t (ng/h/mL) / Cmax / Tmax / half-life: oral (intragastric) 10 mg/kg; for AUC0-C(ng/h/mL) / AUC0-t (ng/h/mL) / bioavailability / Cmax / Tmax / half-life: mean n = 3; for bioavailability / Cmax / Tmax / half-life: rat, plasma; for bioavailability: oral 10 mg/kg vs intravenous 2 mg/kg
# Description: SD rats were used as experimental animals and were subjected to intragastric administration in a dose of 10 mg/kg and tail-vein intravenous injection in a dose of 2 mg/kg. The tail-vein blood sampling time points in the intragastric administration were 0.17, 0.33, 0.5, 1, 1.5, 2, 4, 6, 8, 12, and 24 hours; the blood sampling time points in the intravenous administration were 0.05, 0.1, 0.17, 0.5, 1, 2, 4, 6, 8, 12, and 24 hours. 0.3 ml of whole blood was taken, and 0.1 ml of plasma after centrifugation was taken and analyzed by LC-MS.
# [4] = tested on: human lung cancer cell (A549); assay: In-vitro tumor cell proliferation inhibition (CCK-8), A549; conditions: A549, 72 h, read-out: Tumor cell proliferation inhibitory activity (IC50, μM) A549
# Description: as §11, §12, §13, §14
# ITK = ITK (Homo sapiens (Human), UniProt Q08881); assay: Kinase selectivity experiment, ITK; type: biochemical; conditions: read-out: Inhibitory activity against ITK (IC50)
# Description: as §1, §2, §3, §4, §5, §6, §7, §8, §9, §10
# [5] = tested on: Mino subcutaneous xenograft tumor; assay: In-vivo pharmacodynamic study on Mino subcutaneous xenograft tumor models; conditions: CB17 SCID mice, intragastric, twice a day
# Description: In CB17 SCID mice, 0.2 mL of cell suspension containing 5×10^6 Mino cells was subcutaneously inoculated into the right back of each mouse, and when the mean tumor volume reaches approximately 139.94 mm3 (day 26 after inoculation), group administration was started (intragastric administration, twice a day, 14 days in total). Animals were monitored daily for health and mortality, and tumor diameters were measured twice a week using vernier calipers to see if tumor growth could be inhibited, delayed, or cured.
# CSK = CSK (Homo sapiens (Human), UniProt P41240); assay: Kinase selectivity experiment, CSK; type: biochemical; conditions: read-out: Inhibitory activity against CSK (IC50)
# Description: as §1, §2, §3, §4, §5, §6, §7, §8, §9, §10
# [6] = tested on: diffuse giant B-cell lymphoma (OCI-LY10); assay: In-vitro tumor cell proliferation inhibition (CCK-8), OCI-LY10; conditions: Homo sapiens, OCI-Ly10, 72 h, read-out: Tumor cell proliferation inhibitory activity (IC50, nM) OCI-LY10
# Description: as §11, §12, §13, §14
# BTK Kinase = BTK Kinase (Homo sapiens (Human), UniProt Q06187); assay: In-vitro Btk kinase inhibitory activity assay; type: biochemical
# Description: In-Vitro Btk Kinase Inhibitory Activity Assay for Compounds of the Present Invention:
# 10 μL of the 50× drug stock solution was added to a 96-well plate and then 90 μL of a 1× Kinase Buffer was added and the 96-well plate was shaken for 10 minutes on a shaker. From each well of the 96-well plate, 5 μL of the drug solution was taken and then transferred to a 384-well plate which was provided with 2 duplicate wells.
# Preparation of a 2.5× Kinase Buffer: an enzyme was added to the 1× kinase base buffer.
# Prepare a 2.5× oligopeptide solution: FAM-labeled oligopeptide and ATP were added to the 1× kinase base buffer.
# 10 μL of the 2.5× Kinase Buffer was added to the 384-well plate loaded with 5 μL of the drug solution and incubation was then carried out for 10 minutes at room temperature. 10 μL of the 2.5× oligopeptide solution was added to the 384-well plate and incubation was then carried out for 1 hour at 28° C. The reaction was stopped by adding 25 μL of a stop buffer. The readings were recorded and the inhibition rate of the compound on the enzyme was calculated. The IC50 of BTK kinase was calculated by fitting.
# Sequence of JAK3 (P52333 whole entry, species assumed): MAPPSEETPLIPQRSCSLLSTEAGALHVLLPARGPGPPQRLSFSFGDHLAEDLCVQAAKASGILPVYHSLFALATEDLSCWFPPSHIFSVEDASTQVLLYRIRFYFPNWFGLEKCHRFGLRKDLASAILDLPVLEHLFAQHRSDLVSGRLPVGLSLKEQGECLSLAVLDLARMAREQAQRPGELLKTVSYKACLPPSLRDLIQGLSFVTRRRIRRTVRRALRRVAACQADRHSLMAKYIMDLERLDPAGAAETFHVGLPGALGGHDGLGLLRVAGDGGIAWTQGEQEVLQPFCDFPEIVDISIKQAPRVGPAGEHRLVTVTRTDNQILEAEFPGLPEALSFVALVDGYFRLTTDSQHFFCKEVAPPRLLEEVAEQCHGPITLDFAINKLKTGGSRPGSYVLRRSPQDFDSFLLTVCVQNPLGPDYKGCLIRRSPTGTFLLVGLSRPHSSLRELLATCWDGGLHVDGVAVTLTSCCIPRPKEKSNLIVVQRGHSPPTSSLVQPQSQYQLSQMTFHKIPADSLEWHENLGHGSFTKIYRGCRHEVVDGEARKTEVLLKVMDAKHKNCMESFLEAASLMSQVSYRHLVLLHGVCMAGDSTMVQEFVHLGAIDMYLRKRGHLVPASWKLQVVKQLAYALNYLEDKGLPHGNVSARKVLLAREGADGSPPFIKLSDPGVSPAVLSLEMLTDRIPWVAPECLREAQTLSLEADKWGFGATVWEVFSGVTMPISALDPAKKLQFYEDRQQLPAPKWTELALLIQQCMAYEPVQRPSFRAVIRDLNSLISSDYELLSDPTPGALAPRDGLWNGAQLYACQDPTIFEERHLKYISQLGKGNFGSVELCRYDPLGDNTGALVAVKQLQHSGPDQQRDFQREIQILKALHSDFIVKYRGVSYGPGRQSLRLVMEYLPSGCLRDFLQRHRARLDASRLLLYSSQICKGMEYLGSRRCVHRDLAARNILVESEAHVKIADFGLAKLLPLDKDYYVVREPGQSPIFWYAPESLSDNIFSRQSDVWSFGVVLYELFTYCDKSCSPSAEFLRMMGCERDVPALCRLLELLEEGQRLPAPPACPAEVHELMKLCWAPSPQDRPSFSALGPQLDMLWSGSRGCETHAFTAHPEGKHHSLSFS
# Sequence of BTK Kinase (Q06187 whole entry): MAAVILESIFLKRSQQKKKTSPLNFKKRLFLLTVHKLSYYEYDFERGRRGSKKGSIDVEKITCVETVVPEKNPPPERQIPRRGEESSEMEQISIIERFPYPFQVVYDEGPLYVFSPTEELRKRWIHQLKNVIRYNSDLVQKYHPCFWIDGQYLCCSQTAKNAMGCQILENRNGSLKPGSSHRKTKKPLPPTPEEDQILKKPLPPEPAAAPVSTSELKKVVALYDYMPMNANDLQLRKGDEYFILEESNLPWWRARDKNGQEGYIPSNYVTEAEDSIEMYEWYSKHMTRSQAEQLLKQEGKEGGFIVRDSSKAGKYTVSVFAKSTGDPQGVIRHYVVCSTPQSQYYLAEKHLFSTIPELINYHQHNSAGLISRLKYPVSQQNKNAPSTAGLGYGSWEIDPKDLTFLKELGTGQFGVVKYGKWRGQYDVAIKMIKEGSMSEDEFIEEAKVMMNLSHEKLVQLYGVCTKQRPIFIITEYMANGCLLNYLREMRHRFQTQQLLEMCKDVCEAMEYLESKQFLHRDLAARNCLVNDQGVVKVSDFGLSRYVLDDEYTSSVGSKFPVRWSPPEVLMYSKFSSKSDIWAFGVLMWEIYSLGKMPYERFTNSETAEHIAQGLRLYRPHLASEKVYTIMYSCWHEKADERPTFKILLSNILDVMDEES
# Sequence of CSK (P41240 whole entry, species assumed): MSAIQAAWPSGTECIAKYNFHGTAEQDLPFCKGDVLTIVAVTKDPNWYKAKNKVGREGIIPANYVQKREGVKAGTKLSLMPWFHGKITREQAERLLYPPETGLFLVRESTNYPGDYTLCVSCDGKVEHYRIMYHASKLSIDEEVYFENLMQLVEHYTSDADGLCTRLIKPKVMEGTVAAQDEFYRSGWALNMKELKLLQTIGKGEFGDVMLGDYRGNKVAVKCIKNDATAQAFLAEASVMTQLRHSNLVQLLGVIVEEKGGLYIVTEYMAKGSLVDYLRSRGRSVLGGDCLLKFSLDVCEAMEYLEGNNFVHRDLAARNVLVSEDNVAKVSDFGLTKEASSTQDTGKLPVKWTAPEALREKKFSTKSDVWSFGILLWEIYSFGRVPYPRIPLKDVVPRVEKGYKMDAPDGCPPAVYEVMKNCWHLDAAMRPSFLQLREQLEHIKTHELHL
# Sequence of FLT3 (P36888 27-993, species assumed): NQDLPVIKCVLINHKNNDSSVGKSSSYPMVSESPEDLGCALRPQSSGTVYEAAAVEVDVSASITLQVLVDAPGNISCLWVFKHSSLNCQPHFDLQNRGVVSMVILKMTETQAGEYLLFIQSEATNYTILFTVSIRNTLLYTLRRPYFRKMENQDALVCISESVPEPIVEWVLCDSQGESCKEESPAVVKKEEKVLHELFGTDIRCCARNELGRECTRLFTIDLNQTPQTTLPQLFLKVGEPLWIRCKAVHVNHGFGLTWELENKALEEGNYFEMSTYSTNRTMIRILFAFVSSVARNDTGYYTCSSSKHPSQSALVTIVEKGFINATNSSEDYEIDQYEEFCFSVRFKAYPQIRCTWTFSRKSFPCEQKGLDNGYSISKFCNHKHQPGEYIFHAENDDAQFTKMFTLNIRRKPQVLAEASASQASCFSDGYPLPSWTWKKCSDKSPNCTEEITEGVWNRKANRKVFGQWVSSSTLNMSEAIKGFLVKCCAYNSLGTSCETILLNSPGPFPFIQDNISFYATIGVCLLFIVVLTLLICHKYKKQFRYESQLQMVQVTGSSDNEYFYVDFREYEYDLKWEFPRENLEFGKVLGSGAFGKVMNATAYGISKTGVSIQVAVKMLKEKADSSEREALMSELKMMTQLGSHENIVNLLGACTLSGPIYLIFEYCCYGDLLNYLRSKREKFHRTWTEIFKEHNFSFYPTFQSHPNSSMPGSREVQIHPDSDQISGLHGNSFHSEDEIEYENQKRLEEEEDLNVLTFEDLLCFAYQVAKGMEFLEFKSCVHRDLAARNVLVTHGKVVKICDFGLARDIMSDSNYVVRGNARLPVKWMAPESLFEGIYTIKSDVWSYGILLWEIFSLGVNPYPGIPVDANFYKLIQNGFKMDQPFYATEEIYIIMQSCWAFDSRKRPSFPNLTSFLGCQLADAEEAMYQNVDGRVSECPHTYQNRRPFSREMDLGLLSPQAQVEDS
# Sequence of HCK (P08631 whole entry, species assumed): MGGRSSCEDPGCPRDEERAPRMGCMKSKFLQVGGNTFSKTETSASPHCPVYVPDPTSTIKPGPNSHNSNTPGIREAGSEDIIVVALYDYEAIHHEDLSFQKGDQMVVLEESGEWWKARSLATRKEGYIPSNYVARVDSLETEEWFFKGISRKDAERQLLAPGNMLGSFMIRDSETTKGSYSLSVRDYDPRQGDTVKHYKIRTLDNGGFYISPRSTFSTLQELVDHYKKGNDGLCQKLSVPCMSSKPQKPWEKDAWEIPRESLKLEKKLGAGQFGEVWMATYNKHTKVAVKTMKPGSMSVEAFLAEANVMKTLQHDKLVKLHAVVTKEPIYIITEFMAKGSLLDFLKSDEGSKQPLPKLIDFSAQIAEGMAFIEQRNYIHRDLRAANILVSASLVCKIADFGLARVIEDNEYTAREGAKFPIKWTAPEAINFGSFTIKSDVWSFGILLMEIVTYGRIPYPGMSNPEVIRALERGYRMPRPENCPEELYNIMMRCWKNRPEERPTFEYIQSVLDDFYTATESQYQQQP
# Sequence of ITK (Q08881 whole entry, species assumed): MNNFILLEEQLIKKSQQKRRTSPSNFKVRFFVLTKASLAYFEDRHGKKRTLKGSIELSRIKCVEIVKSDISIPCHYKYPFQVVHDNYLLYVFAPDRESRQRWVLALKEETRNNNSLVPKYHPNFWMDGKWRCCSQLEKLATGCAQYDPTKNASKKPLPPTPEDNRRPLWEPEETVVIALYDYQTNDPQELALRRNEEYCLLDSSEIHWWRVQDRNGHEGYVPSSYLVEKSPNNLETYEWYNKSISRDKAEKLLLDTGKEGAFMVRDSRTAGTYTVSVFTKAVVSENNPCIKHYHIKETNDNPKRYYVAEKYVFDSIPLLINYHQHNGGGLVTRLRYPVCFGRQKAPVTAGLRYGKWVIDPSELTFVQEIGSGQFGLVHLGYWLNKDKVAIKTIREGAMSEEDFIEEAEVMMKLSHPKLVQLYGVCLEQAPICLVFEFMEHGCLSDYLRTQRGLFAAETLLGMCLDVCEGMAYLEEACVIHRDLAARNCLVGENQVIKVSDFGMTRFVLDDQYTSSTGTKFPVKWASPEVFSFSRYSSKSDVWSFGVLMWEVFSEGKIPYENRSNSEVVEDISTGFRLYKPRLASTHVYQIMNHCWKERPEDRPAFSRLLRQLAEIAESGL
compound,measurement,setting,value
"C=CC(=O)N1CCC[C@@H](n2nc(-c3ccc(Oc4ccccc4)nc3)c3c(N)ncnc32)C1 [Compound 15a, (R)-1-(3-(4-amino-3-(6-phenoxypyridin-3-yl)-1H-pyrazolo[3,4-d]pyrimidin-1-yl)piperidin-1-yl) prop-2-en-1-one]",IC50,[1],8.16 nM
same,IC50,[2],6.17 µM
same,IC50,FLT3,> 1000 nM
same,IC50,JAK3,> 1000 nM
same,IC50,HCK,> 1000 nM
same,oral bioavailability relative to ibrutinib,[3],1.67 times
same,AUC0-C(ng/h/mL),[3],698 ng·h/mL
same,AUC0-t (ng/h/mL),[3],624 ng·h/mL
same,bioavailability,[3],20.9%
same,Cmax,[3],292 ng/mL
same,Tmax,[3],0.333 h
same,half-life,[3],6.17 h
same,IC50,[4],1.56 µM
same,IC50,ITK,> 1000 nM
same,TGI*(14 days) (%) calculated on the basis of tumor volume,[5],65.01%
same,TGI**(14 days) (%) calculated on the basis of tumor weight,[5],61.00%
same,IC50,CSK,> 1000 nM
same,IC50,[6],2.5 nM
same,IC50,BTK Kinase,3.2 nM
"C=CC(=O)N1CC[C@@H](n2nc(-c3ccc(Oc4ccccc4)nc3F)c3c(N)ncnc32)C1 [Compound 24a, (R)-1-(3-(4-amino-3-(2-fluoro-6-phenoxypyridin-3-yl)-1H-pyrazolo[3,4-d]pyrimidin-1-yl)pyrrolidin-1-yl)prop-2-en-1-one]",IC50,[1],16.9 nM
same,IC50,[2],9.46 µM
same,IC50,FLT3,> 1000 nM
same,IC50,JAK3,> 1000 nM
same,IC50,HCK,> 1000 nM
same,oral bioavailability relative to ibrutinib,[3],4.62 times
same,AUC0-C(ng/h/mL),[3],2140 ng·h/mL
same,AUC0-t (ng/h/mL),[3],2080 ng·h/mL
same,bioavailability,[3],57.8%
same,Cmax,[3],548 ng/mL
same,Tmax,[3],0.75 h
same,half-life,[3],1.7 h
same,IC50,[4],2.11 µM
same,IC50,ITK,> 1000 nM
same,TGI*(14 days) (%) calculated on the basis of tumor volume,[5],73.80%
same,TGI**(14 days) (%) calculated on the basis of tumor weight,[5],65.19%
same,IC50,CSK,> 1000 nM
same,IC50,[6],2.17 nM
same,IC50,BTK Kinase,2.5 nM
